Experimental data as given in patent US20250188069A1, “COMPOUNDS AND METHODS FOR DEGRADING CASEIN KINASE 1 ALPHA” (PIN THERAPEUTICS, INC., priority 2022, published 2025).
Where a name gives a salt, the structure may show the parent alone.

How the values were obtained:
CK1α = CK1α (Homo sapiens, UniProt P48729+Q96SW2); assay: CK1α HiBiT assay in CK1a_HiBiT_Jurkat cells; assay type: cell-based; settings: DC50 class, 16 hours, Nano-Glo HiBiT Lytic Detection, read-out: CK1α degradation classification
Method: CK1a_HiBiT_Jurkat cells were culture in RPMI 1640 medium (Gibco, 11875093) with 10% FBS under standard tissue culture conditions. Briefly, Compounds of the present disclosure was added to 30,000 cells in a white 96-well plate (9-point dose response, top concentration […], half-log serial dilution, final DMSO concentration 0.5%) and incubated for 16 hours. CK1a level was determined in along with the Nano-Glo HiBiT Lytic Detection system [Promega N3050] with final concentration of 1 x. The luminescence was normalized to that of DMSO-treated samples. DC50 values were obtained using three-parameter non-linear regressions using Prism (GraphPad). The compounds are classified based on DC50 values as follows. • A: DC50 is less than or equal to 1×10^−7; • B: DC50 is greater than 1×10^−7 & less than or equal to 1×10^−6; • C: DC50 is greater than 1×10^−6; • NA: not calculated (no activity detected, <25% viability reduction at 1 uM)

MV-4-11 cells = assay: AML cell viability assay (RealTime-Glo); assay type: cell-based; settings: Homo sapiens, MV4-11; IC50 class; MV-4-11 cells, RealTime-Glo after 44 hrs of treatment (TABLE 5); read-out: Cell viability classification

Sequence of CK1α (P48729 whole entry): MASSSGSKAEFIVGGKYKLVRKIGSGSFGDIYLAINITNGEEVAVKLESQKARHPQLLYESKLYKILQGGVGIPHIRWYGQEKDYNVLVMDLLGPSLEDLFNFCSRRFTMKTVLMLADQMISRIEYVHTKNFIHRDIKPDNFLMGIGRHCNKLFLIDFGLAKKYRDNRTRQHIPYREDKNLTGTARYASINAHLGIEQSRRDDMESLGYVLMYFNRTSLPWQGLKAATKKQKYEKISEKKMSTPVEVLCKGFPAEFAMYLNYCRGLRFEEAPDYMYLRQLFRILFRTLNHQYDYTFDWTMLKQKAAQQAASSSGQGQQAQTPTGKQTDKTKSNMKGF
Sequence of CK1α (Q96SW2 whole entry): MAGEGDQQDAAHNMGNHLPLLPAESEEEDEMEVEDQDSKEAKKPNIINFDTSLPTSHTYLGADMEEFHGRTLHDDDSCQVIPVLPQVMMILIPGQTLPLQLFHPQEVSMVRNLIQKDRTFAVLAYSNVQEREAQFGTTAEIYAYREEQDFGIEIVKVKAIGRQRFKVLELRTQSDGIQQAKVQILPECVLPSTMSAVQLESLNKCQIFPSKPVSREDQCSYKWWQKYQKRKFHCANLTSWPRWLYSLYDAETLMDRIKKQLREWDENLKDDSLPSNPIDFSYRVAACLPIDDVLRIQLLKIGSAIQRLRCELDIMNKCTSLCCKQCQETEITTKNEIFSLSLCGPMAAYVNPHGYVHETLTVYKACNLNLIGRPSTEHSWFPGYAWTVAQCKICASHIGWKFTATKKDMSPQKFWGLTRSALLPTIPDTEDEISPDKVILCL
Sequence of CK1α (Q16531 whole entry partner): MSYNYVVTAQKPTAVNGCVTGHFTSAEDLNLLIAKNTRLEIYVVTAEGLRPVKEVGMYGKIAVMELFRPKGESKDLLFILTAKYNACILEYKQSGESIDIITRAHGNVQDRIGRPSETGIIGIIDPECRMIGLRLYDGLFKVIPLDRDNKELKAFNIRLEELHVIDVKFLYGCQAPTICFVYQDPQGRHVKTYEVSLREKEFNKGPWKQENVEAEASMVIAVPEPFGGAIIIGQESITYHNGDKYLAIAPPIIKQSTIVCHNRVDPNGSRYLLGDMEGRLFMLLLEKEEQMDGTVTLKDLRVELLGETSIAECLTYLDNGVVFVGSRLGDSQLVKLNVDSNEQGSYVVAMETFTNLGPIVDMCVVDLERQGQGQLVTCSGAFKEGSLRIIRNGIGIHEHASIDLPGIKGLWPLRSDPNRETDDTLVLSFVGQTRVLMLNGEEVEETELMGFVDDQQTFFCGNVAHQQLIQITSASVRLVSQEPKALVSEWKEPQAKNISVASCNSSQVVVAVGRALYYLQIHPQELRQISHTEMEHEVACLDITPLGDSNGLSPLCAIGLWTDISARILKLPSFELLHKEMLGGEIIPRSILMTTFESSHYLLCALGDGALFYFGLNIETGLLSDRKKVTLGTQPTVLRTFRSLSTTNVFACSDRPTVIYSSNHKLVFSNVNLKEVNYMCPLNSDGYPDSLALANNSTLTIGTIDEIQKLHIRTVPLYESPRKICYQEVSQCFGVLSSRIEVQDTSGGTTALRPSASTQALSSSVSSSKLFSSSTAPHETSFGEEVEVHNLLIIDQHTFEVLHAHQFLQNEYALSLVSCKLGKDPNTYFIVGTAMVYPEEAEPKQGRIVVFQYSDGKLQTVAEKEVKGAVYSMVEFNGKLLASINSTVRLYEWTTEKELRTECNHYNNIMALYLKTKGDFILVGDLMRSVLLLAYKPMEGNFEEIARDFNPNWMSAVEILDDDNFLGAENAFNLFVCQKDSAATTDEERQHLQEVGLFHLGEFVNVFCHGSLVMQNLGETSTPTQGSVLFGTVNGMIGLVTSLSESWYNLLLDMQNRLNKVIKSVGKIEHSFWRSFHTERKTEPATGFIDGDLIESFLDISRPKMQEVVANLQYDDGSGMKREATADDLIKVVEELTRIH

Compound: O=C1CCC(N2Cc3c(cccc3N(CCC3CC3)[C@H]3CC[C@H](N4CCOCC4)CC3)C2=O)C(=O)N1 (some centres unmarked) [Compound 674, 3-{4-[(2-cyclopropylethyl)[(1r,4r)-4-(morpholin-4-yl)cyclohexyl]amino]-1-oxo-3H-isoindol-2-yl}piperidine-2,6-dione]
- DC50 (CK1α): ≤ 100 nM
- IC50 (MV-4-11 cells): < 100 nM

Compound: O=C1CCC(N2Cc3c(cccc3N(CC3CC4(CCC4)C3)[C@H]3CC[C@H](NCCC(F)(F)F)CC3)C2=O)C(=O)N1 (some centres unmarked) [Compound 651, 3-(1-oxo-4-{[(1r,4r)-4-[(3,3,3-trifluoropropyl)amino]cyclohexyl]({spiro[3.3]heptan-2-ylmethyl})amino}-3H-isoindol-2-yl)piperidine-2,6-dione; trifluoroacetic acid]
- DC50 (CK1α): ≤ 100 nM
- IC50 (MV-4-11 cells): > 1000 nM

Compound: O=C1CCC(N2Cc3c(cc(F)cc3N(CCC3CC3)[C@H]3CC[C@@H](NCC4(C(F)(F)F)CC4)CC3)C2=O)C(=O)N1 (some centres unmarked) [Compound 658A, 3-{4-[(2-cyclopropylethyl)[(1s,4s)-4-({[1-(trifluoromethyl)cyclopropyl]methyl}amino)cyclohexyl]amino]-6-fluoro-1-oxo-3H-isoindol-2-yl}piperidine-2,6-dione]
- DC50 (CK1α): 100 to 1000 nM
- IC50 (MV-4-11 cells): > 1000 nM

Compound: NCC12CC(N(CCC3CC3)c3cccc4c3CN(C3CCC(=O)NC3=O)C4=O)(C1)C2 (centres unmarked) [Compound 660, 3-(4-{[3-(aminomethyl)bicyclo[1.1.1]pentan-1-yl](2-cyclopropylethyl)amino}-1-oxo-3H-isoindol-2-yl)piperidine-2,6-dione]
- DC50 (CK1α): ≤ 100 nM
- IC50 (MV-4-11 cells): 100 to 1000 nM

Compound: O=C1CCC(N2Cc3c(cccc3N(CCC3CC3)[C@H]3CC[C@H](NCc4ncco4)CC3)C2=O)C(=O)N1 (some centres unmarked) [Compound 662]
- DC50 (CK1α): ≤ 100 nM
- IC50 (MV-4-11 cells): 100 to 1000 nM

Compound: O=C1CCC(N2Cc3c(cccc3N(CCC3CC3)[C@H]3CC[C@@H](N4CCC(F)C4)CC3)C2=O)C(=O)N1 (some centres unmarked) [Compound 671A, 3-{4-[(2-cyclopropylethyl)[(1s,4s)-4-(3-fluoropyrrolidin-1-yl)cyclohexyl]amino]-1-oxo-3H-isoindol-2-yl}piperidine-2,6-dione]
- DC50 (CK1α): 100 to 1000 nM

Compound: CC1(C)CC(CN(c2cccc3c2CN(C2CCC(=O)NC2=O)C3=O)[C@H]2CC[C@H](NCC3(C(F)(F)F)CC3)CC2)C1 (some centres unmarked) [Compound 657, 3-(4-{[(3,3-dimethylcyclobutyl)methyl][(1r,4r)-4-({[1-(trifluoromethyl)cyclopropyl]methyl}amino)cyclohexyl]amino}-1-oxo-3H-isoindol-2-yl)piperidine-2,6-dione; bis(trifluoroacetic acid)]
- DC50 (CK1α): 100 to 1000 nM
- IC50 (MV-4-11 cells): > 1000 nM

Compound: O=C1CCC(N2Cc3c(cccc3N(CC3CC(F)(F)C3)[C@H]3CC[C@@H](NCCC(F)(F)F)CC3)C2=O)C(=O)N1 (some centres unmarked) [Compound 650A, 3-(4-{[(3,3-difluorocyclobutyl)methyl][(1s,4s)-4-[(3,3,3-trifluoropropyl)amino]cyclohexyl]amino}-1-oxo-3H-isoindol-2-yl)piperidine-2,6-dione]
- DC50 (CK1α): > 1000 nM

Compound: O=C1CCC(N2Cc3c(cc(F)cc3N(CCC3CC3)[C@H]3CC[C@H](NCC4(C(F)(F)F)CC4)CC3)C2=O)C(=O)N1 (some centres unmarked) [Compound 658, 3-{4-[(2-cyclopropylethyl)[(1r,4r)-4-({[1-(trifluoromethyl)cyclopropyl]methyl}amino)cyclohexyl]amino]-6-fluoro-1-oxo-3H-isoindol-2-yl}piperidine-2,6-dione]
- DC50 (CK1α): ≤ 100 nM
- IC50 (MV-4-11 cells): 100 to 1000 nM

Compound: O=C1CCC(N2Cc3c(cccc3N(CCC3CC3)[C@H]3CC[C@@H](N4CCOCC4)CC3)C2=O)C(=O)N1 (some centres unmarked) [Compound 674A, 3-{4-[(2-cyclopropylethyl)[(1s,4s)-4-(morpholin-4-yl)cyclohexyl]amino]-1-oxo-3H-isoindol-2-yl}piperidine-2,6-dione]
- DC50 (CK1α): 100 to 1000 nM

Compound: O=C1CCC(N2Cc3c(cccc3N(CCC3CC3)[C@H]3CC[C@@H](N4CCC(C(F)(F)F)C4)CC3)C2=O)C(=O)N1 (some centres unmarked) [Compound 672A, 3-{4-[(2-cyclopropylethyl)[(1s,4s)-4-[3-(trifluoromethyl)pyrrolidin-1-yl]cyclohexyl]amino]-1-oxo-3H-isoindol-2-yl}piperidine-2,6-dione; trifluoroacetic acid]
- DC50 (CK1α): 100 to 1000 nM

Compound: CN(C)[C@H]1CC[C@H](N(CCC2CC2)c2cccc3c2CN(C2CCC(=O)NC2=O)C3=O)CC1 (some centres unmarked) [Compound 668, 3-{4-[(2-cyclopropylethyl)[(1r,4r)-4-(dimethylamino)cyclohexyl]amino]-1-oxo-3H-isoindol-2-yl}piperidine-2,6-dione]
- DC50 (CK1α): ≤ 100 nM
- IC50 (MV-4-11 cells): < 100 nM

Compound: CN(CCC(F)(F)F)[C@H]1CC[C@@H](N(CCC2CC2)c2cccc3c2CN(C2CCC(=O)NC2=O)C3=O)CC1 (some centres unmarked) [Compound 682A]
- DC50 (CK1α): 100 to 1000 nM

Compound: O=C1CCC(N2Cc3c(cccc3N(CCC3CC3)C34CC(CNCCC(F)(F)F)(C3)C4)C2=O)C(=O)N1 (centres unmarked) [Compound 703, 3-{4-[(2-cyclopropylethyl)(3-{[(3,3,3-trifluoropropyl)amino]methyl}bicyclo[1.1.1]pentan-1-yl)amino]-1-oxo-3H-isoindol-2-yl}piperidine-2,6-dione]
- DC50 (CK1α): ≤ 100 nM
- IC50 (MV-4-11 cells): 100 to 1000 nM

Compound: O=C1CCC(N2Cc3c(cccc3N(CCC3CC3)[C@H]3CC[C@H](N4CCC(F)(F)CC4)CC3)C2=O)C(=O)N1 (some centres unmarked) [Compound 716, 3-(4-((2-cyclopropylethyl)((1r,4r)-4-(4,4-difluoropiperidin-1-yl)cyclohexyl)amino)-1-oxoisoindolin-2-yl)piperidine-2,6-dione 2,2,2-trifluoroacetate]
- DC50 (CK1α): ≤ 100 nM
- IC50 (MV-4-11 cells): 100 to 1000 nM

Compound: O=C1CCC(N2Cc3c(cccc3N(CCC3CC3)[C@H]3CC[C@H](NCc4ccccn4)CC3)C2=O)C(=O)N1 (some centres unmarked) [Compound 665, 3-{4-[(2-cyclopropylethyl)[(1r,4r)-4-[(pyridin-2-ylmethyl)amino]cyclohexyl]amino]-1-oxo-3H-isoindol-2-yl}piperidine-2,6-dione; formic acid]
- DC50 (CK1α): ≤ 100 nM
- IC50 (MV-4-11 cells): 100 to 1000 nM

Compound: O=C1CCC(N2Cc3c(cccc3N(CCC3CC3)[C@H]3CC[C@@H](N4CCCC4)CC3)C2=O)C(=O)N1 (some centres unmarked) [Compound 669A]
- DC50 (CK1α): 100 to 1000 nM

Compound: O=C1CCC(N2Cc3c(cccc3N(CCC3CC3)[C@H]3CC[C@H](NCc4nccs4)CC3)C2=O)C(=O)N1 (some centres unmarked) [Compound 663, 3-{4-[(2-cyclopropylethyl)[(1r,4r)-4-[(1,3-thiazol-2-ylmethyl)amino]cyclohexyl]amino]-1-oxo-3H-isoindol-2-yl}piperidine-2,6-dione]
- DC50 (CK1α): ≤ 100 nM
- IC50 (MV-4-11 cells): 100 to 1000 nM

Compound: CN(CCC(F)(F)F)[C@H]1CC[C@H](N(CCC2CC2)c2cccc3c2CN(C2CCC(=O)NC2=O)C3=O)CC1 (some centres unmarked) [Compound 682]
- DC50 (CK1α): ≤ 100 nM
- IC50 (MV-4-11 cells): < 100 nM

Compound: COCCN(C)[C@H]1CC[C@H](N(CCC2CC2)c2cccc3c2CN(C2CCC(=O)NC2=O)C3=O)CC1 (some centres unmarked) [Compound 680]
- DC50 (CK1α): ≤ 100 nM
- IC50 (MV-4-11 cells): 100 to 1000 nM

Compound: O=C1CCC(N2Cc3c(cccc3N(CCC3CC3)[C@H]3CC[C@H](N4CCC(F)(F)C4)CC3)C2=O)C(=O)N1 (some centres unmarked) [Compound 670]
- DC50 (CK1α): ≤ 100 nM
- IC50 (MV-4-11 cells): 100 to 1000 nM

Compound: O=C1CCC(N2Cc3c(cccc3N(CCC3CC3)C3CCC(N[C@H]4C[C@@H]4C(F)(F)F)CC3)C2=O)C(=O)N1 (stereo partly drawn) [Compound 678, 3-(4-((2-cyclopropylethyl)(4-(((1S,2S)-2-(trifluoromethyl)cyclopropyl)amino)cyclohexyl)amino)-1-oxoisoindolin-2-yl)piperidine-2,6-dione Trifluoroacetate]
- DC50 (CK1α): 100 to 1000 nM
- IC50 (MV-4-11 cells): 100 to 1000 nM

Compound: O=C1CCC(N2Cc3c(cccc3N(CCC3CC3)[C@H]3CC[C@@H](N[C@H]4CC[C@@H]4C(F)(F)F)CC3)C2=O)C(=O)N1 (stereo partly drawn) [Compound 675A, 3-{4-[(2-cyclopropylethyl)[(1s,4s)-4-{[(1S,2S)-2-(trifluoromethyl)cyclobutyl]amino}cyclohexyl]amino]-1-oxo-3H-isoindol-2-yl}piperidine-2,6-dione; bis(trifluoroacetic acid)]
- DC50 (CK1α): 100 to 1000 nM

Compound: CN(CCCC(F)(F)F)[C@H]1CC[C@@H](N(CCC2CC2)c2cccc3c2CN(C2CCC(=O)NC2=O)C3=O)CC1 (some centres unmarked) [Compound 681A, 3-{4-[(2-cyclopropylethyl)[(1s,4s)-4-[methyl(4,4,4-trifluorobutyl)amino]cyclohexyl]amino]-1-oxo-3H-isoindol-2-yl}piperidine-2,6-dione]
- DC50 (CK1α): 100 to 1000 nM

Compound: O=C1CCC(N2Cc3c(cccc3N(CC3CC(F)(F)C3)[C@H]3CC[C@@H](NCC4(C(F)(F)F)CC4)CC3)C2=O)C(=O)N1 (some centres unmarked) [Compound 655A, 3-(4-{[(3,3-difluorocyclobutyl)methyl][(1s,4s)-4-({[1-(trifluoromethyl)cyclopropyl]methyl}amino)cyclohexyl]amino}-1-oxo-3H-isoindol-2-yl)piperidine-2,6-dione]
- DC50 (CK1α): > 1000 nM

Compound: O=C1CCC(N2Cc3c(cccc3N(CC3CC4(CCC4)C3)[C@H]3CC[C@@H](NCC4(C(F)(F)F)CC4)CC3)C2=O)C(=O)N1 (some centres unmarked) [Compound 656A, 3-(1-oxo-4-{[(1s,4s)-4-({[1-(trifluoromethyl)cyclopropyl]methyl}amino)cyclohexyl]({spiro[3.3]heptan-2-ylmethyl})amino}-3H-isoindol-2-yl)piperidine-2,6-dione; trifluoroacetic acid]
- DC50 (CK1α): > 1000 nM

Compound: O=C1CCC(N2Cc3c(cccc3N(CCC3CC3)[C@H]3CC[C@@H](N4CC(C(F)(F)F)C4)CC3)C2=O)C(=O)N1 (some centres unmarked) [Compound 673A]
- DC50 (CK1α): 100 to 1000 nM

Compound: COCCN(C)[C@H]1CC[C@@H](N(CCC2CC2)c2cccc3c2CN(C2CCC(=O)NC2=O)C3=O)CC1 (some centres unmarked) [Compound 680A]
- DC50 (CK1α): 100 to 1000 nM
